Laboratory results reported in patent EP0942906B1, “COMPOUNDS USEFUL FOR INHIBITION OF FARNESYL PROTEIN TRANSFERASE” (SCHERING CORPORATION, priority 1996, dated 1998).
Where two headings read alike, the source gives them in different places.

Tests used:
Details in all cases: range stated for the listed group of compounds
[1] = test system: COS Cell; assay: COS Cell IC50 (Cell-Based Assay, procedure of WO 95/10516)
Protocol: (§1) FPT IC50 (inhibition of farnesyl protein transferase, in vitro enzyme assay) and COS Cell IC50 (Cell-Based Assay) were determined following the assay procedures described in WO 95/10516, published April 20, 1995. GGPT IC50 (inhibition of geranylgeranyl protein transferase, in vitro enzyme assay), Cell Mat Assay, and anti-tumor activity (in vivo anti-tumor studies) could be determined by the assay procedures described in WO 95/10516.

[2] = test system: Human tumor cells; assay: Soft Agar Assay (anchorage-independent growth, colony count after MTT staining); type: cell-based
Protocol: Anchorage-independent growth is a characteristic of tumorigenic cell lines. Human tumor cells are suspended in growth medium containing 0.3% agarose and an indicated concentration of a farnesyl transferase inhibitor. The solution is overlayed onto growth medium solidified with 0.6% agarose containing the same concentration of farnesyl transferase inhibitor as the top layer. After the top layer is solidified, plates are incubated for 10-16 days at 37°C under 5% CO2 to allow colony outgrowth. After incubation, the colonies are stained by overlaying the agar with a solution of MTT (3-[4,5-dimethylthiazol-2-yl]-2.5-diphenyltetrazolium bromide, Thiazolyl blue) (1 mg/mL in PBS). Colonies can be counted and the IC50's can be determined.

[3] = target: farnesyl protein transferase (Homo sapiens, UniProt P49354+P49356); assay: FPT IC50, inhibition of farnesyl protein transferase, in vitro enzyme assay (procedure of WO 95/10516); type: biochemical
Protocol: as §1

[4] = k-ras, read-out: FPT IC50 (k-ras)
[5] = ras form not stated, read-out: FPT IC50
[6] = H-ras, read-out: FPT IC50 (H-ras)

Sequence of farnesyl protein transferase (P49356 whole entry, one chain of several): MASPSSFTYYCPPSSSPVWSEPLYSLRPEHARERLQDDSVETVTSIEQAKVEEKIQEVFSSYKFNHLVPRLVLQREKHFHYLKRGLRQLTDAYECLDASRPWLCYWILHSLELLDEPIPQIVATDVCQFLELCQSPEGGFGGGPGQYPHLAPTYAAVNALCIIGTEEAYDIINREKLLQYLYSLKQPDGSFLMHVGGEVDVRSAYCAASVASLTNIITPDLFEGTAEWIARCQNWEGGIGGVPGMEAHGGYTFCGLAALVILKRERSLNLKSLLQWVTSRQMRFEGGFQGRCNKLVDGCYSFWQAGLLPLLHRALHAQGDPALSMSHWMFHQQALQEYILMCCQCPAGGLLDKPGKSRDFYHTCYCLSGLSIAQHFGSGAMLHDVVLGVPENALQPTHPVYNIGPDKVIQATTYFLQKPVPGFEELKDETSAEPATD

SMILES | IC50 [2] [nM] | IC50 [3, 4] [nM] | IC50 [3, 5] [nM] | IC50 ([1]; read-out: Cos Cell) [nM] | IC50 [3, 6] [nM] | IC50 ([1]; read-out: Cos Cell IC50) [nM]
O=C(CC1CCN(C(=O)CN2CCS(=O)(=O)CC2)CC1)N1CCC([C@H]2c3ncc(Br)cc3CCc3cc(Cl)cc(Br)c32)CC1 [Compound 6.0-B] | ≥ 19.5 | 14.5 to 71.2 | 0.7 to 18 | ≥ 9 | – | –
CCOC(=O)C[C@@H](CC(=O)N1CCC(CC(=O)N2CCC([C@H]3c4ncc(Br)cc4CCc4cc(Cl)cc(Br)c43)CC2)CC1)OC(C)=O [Compound 16.0-B] | ≥ 19.5 | – | 0.7 to 18 | ≥ 9 | – | –
CC(C)(C)OC(=O)N1C[C@H](O)C[C@H]1C(=O)N1CCC(CC(=O)N2CCC([C@H]3c4ncc(Br)cc4CCc4cc(Cl)cc(Br)c43)CC2)CC1 [Compound 24.0-B] | ≥ 19.5 | – | 0.7 to 18 | ≥ 9 | – | –
O=C(O)CCCCC(=O)N1CCC(CC(=O)N2CCC([C@H]3c4ncc(Br)cc4CCc4cc(Cl)cc(Br)c43)CC2)CC1 [Compound 107.0-B] | ≥ 19.5 | – | 0.7 to 18 | ≥ 9 | – | –
O=C(CON=Cc1ccccc1O)N1CCC(CC(=O)N2CCC(C3c4ncc(Br)cc4CCc4cc(Cl)cc(Br)c43)CC2)CC1 (centres unmarked) [Compound 95.0-B] | ≥ 19.5 | – | 0.7 to 18 | ≥ 9 | – | –
O=C(CC1CCN(C(=O)Cn2cccc2)CC1)N1CCC([C@H]2c3ncc(Br)cc3CCc3cc(Cl)cc(Br)c32)CC1 [Compound 34.0-B] | ≥ 19.5 | – | 0.7 to 18 | ≥ 9 | – | –
O=C(O)c1cccn1CC(=O)N1CCC(CC(=O)N2CCC([C@H]3c4ncc(Br)cc4CCc4cc(Cl)cc(Br)c43)CC2)CC1 [Compound 52.0-B] | ≥ 19.5 | – | 0.7 to 18 | ≥ 9 | – | –
O=C(CC1CCOCC1)N1CCC(CC(=O)N2CCC([C@H]3c4ncc(Br)cc4CCc4cc(Cl)cc(Br)c43)CC2)CC1 [Compound 85.0-B] | ≥ 19.5 | – | 0.7 to 18 | ≥ 9 | – | –
N[C@@H](Cc1c[nH]cn1)C(=O)N1CCC(CC(=O)N2CCC([C@H]3c4ncc(Br)cc4CCc4cc(Cl)cc(Br)c43)CC2)CC1 [Compound 9.0] | – | 14.5 to 71.2 | – | – | 2 to 31.7 | –
COC(NC(=O)CC(=O)N1CCC(CC(=O)N2CCC([C@H]3c4ncc(Br)cc4CCc4cc(Cl)cc(Br)c43)CC2)CC1)C(C)C (some centres unmarked) [Compound 51.0-B] | – | – | 0.7 to 18 | ≥ 9 | – | –
CCOC(=O)CC(=O)N1CCC(CC(=O)N2CCC([C@H]3c4ncc(Br)cc4CCc4cc(Cl)cc(Br)c43)CC2)CC1 [Compound 8.0-B] | – | – | 0.7 to 18 | – | – | –
O=C(CCN1CCCCC1)N1CCC(CC(=O)N2CCC([C@H]3c4ncc(Br)cc4CCc4cc(Cl)cc(Br)c43)CC2)CC1 [Compound 7.0-B] | – | 14.5 to 71.2 | 0.7 to 18 | ≥ 9 | – | –
O=C(CC1CCN(C(=O)CN2C(=O)CSC2=O)CC1)N1CCC([C@H]2c3ncc(Br)cc3CCc3cc(Cl)cc(Br)c32)CC1 [Compound 79.0-B] | ≥ 19.5 | – | 0.7 to 18 | ≥ 9 | 2 to 31.7 | –
CCOC(=O)c1c(C)ncn1CC(=O)N1CCC(CC(=O)N2CCC([C@H]3c4ncc(Br)cc4CCc4cc(Cl)cc(Br)c43)CC2)CC1 [Compound 53.0-B] | ≥ 19.5 | – | 0.7 to 18 | ≥ 9 | – | –
O=C(CO)N1CCC(CC(=O)N2CCC([C@H]3c4ncc(Br)cc4CCc4cc(Cl)cc(Br)c43)CC2)CC1 [Compound 37.0-B] | ≥ 19.5 | – | 0.7 to 18 | ≥ 9 | – | –
N#CCC(=O)N1CCC(CC(=O)N2CCC([C@H]3c4ncc(Br)cc4CCc4cc(Cl)cc(Br)c43)CC2)CC1 [Compound 44.0-B] | ≥ 19.5 | – | 0.7 to 18 | ≥ 9 | – | –
C[C@H](NC(=O)OC(C)(C)C)C(=O)N1CCC(CC(=O)N2CCC([C@H]3c4ncc(Br)cc4CCc4cc(Cl)cc(Br)c43)CC2)CC1 [Compound 3.0] | – | 14.5 to 71.2 | – | – | 2 to 31.7 | –

SMILES | IC50 [2] [nM] | IC50 [3, 4] [nM] | IC50 [3, 5] [nM] | IC50 ([1]; read-out: Cos Cell) [nM] | IC50 [3, 6] [nM] | IC50 ([1]; read-out: Cos Cell IC50) [nM]
O=C(CC1CCN(C(=O)CC2CCCCO2)CC1)N1CCC([C@H]2c3ncc(Br)cc3CCc3cc(Cl)cc(Br)c32)CC1 (some centres unmarked) [Compound 114.3-B] | – | – | 0.7 to 18 | ≥ 9 | – | –
O=C(CCN1CCCCC1)N1CCC(CC(=O)N2CCC(C3c4ncc(Br)cc4CCc4cc(Cl)cc(Br)c43)CC2)CC1 (single isomer, unassigned; (+)) [Compound 14.2] | – | – | – | – | 2 to 31.7 | 10 to 700
O=C(CC1CCN(C(=O)CN2CCOCC2)CC1)N1CCC([C@H]2c3ncc(Br)cc3CCc3cc(Cl)cc(Br)c32)CC1 [Compound 13.0] | – | – | – | – | 2 to 31.7 | 10 to 700
CN(C)CCCC(=O)N1CCC(CC(=O)N2CCC([C@H]3c4ncc(Br)cc4CCc4cc(Cl)cc(Br)c43)CC2)CC1 [Compound 12.2] | – | – | – | – | 2 to 31.7 | –
CC(C)(C)OC(=O)N[C@@H](Cc1ccccc1)C(=O)N1CCC(CC(=O)N2CCC([C@H]3c4ncc(Br)cc4CCc4cc(Cl)cc(Br)c43)CC2)CC1 [Compound 5.0] | – | – | – | – | 2 to 31.7 | –
CCOC(=O)CC(=O)N1CCC(CC(=O)N2CCC(C3c4ncc(Br)cc4CCc4cc(Cl)cc(Br)c43)CC2)CC1 (centres unmarked) [Compound 15.3] | – | – | – | – | 2 to 31.7 | 10 to 700
CC(C)(C)OC(=O)NCC(=O)N1CCC(CC(=O)N2CCC([C@H]3c4ncc(Br)cc4CCc4cc(Cl)cc(Br)c43)CC2)CC1 [Compound 2.0] | – | 14.5 to 71.2 | – | – | 2 to 31.7 | –
O=C(NCC(=O)N1CCC(CC(=O)N2CCC([C@H]3c4ncc(Br)cc4CCc4cc(Cl)cc(Br)c43)CC2)CC1)c1ccccc1 [Compound 12.0] | – | – | – | – | 2 to 31.7 | 10 to 700
O=C(CC1CCN(C(=O)Cn2cnc(-c3ccccc3)c2)CC1)N1CCC([C@H]2c3ncc(Br)cc3CCc3cc(Cl)cc(Br)c32)CC1 [Compound 20.0-B] | – | – | 0.7 to 18 | – | – | –
CCOC(CC(=O)N1CCC(CC(=O)N2CCC([C@H]3c4ncc(Br)cc4CCc4cc(Cl)cc(Br)c43)CC2)CC1)OCC [Compound 76.0-B] | – | – | 0.7 to 18 | – | – | –
O=C(CC1CCN(C(=O)CN2CCS(=O)(=O)CC2)CC1)N1CCC(C2c3ncc(Br)cc3CCc3cc(Cl)cc(Br)c32)CC1 (single isomer, unassigned; (+)) [Compound 14.1] | – | – | – | – | 2 to 31.7 | 10 to 700
NCCCC(=O)N1CCC(CC(=O)N2CCC([C@H]3c4ncc(Br)cc4CCc4cc(Cl)cc(Br)c43)CC2)CC1 [Compound 90.0-B] | – | – | 0.7 to 18 | – | – | –
CC(C)(C)OC(=O)NCCC(=O)N1CCC(CC(=O)N2CCC([C@H]3c4ncc(Br)cc4CCc4cc(Cl)cc(Br)c43)CC2)CC1 [Compound 86.0-B] | – | – | 0.7 to 18 | – | – | –
COC(=O)CCCC(=O)N1CCC(CC(=O)N2CCC(C3c4ncc(Br)cc4CCc4cc(Cl)cc(Br)c43)CC2)CC1 (centres unmarked) [Compound 15.1] | – | – | – | – | 2 to 31.7 | 10 to 700
CS(=O)(=O)NCC(=O)N1CCC(CC(=O)N2CCC([C@H]3c4ncc(Br)cc4CCc4cc(Cl)cc(Br)c43)CC2)CC1 [Compound 11.0] | – | – | – | – | 2 to 31.7 | 10 to 700
C[C@@H](NC(=O)OC(C)(C)C)C(=O)N1CCC(CC(=O)N2CCC([C@H]3c4ncc(Br)cc4CCc4cc(Cl)cc(Br)c43)CC2)CC1 [Compound 4.0] | – | 14.5 to 71.2 | – | – | 2 to 31.7 | –

Continued, in another order:

IC50 [2] [nM] | IC50 [3, 4] [nM] | IC50 [3, 5] [nM] | SMILES | IC50 ([1]; read-out: Cos Cell) [nM] | IC50 [3, 6] [nM] | IC50 ([1]; read-out: Cos Cell IC50) [nM]
≥ 19.5 | – | – | COC(=O)CCC(=O)N1CCC(CC(=O)N2CCC(C3c4ncc(Br)cc4CCc4cc(Cl)cc(Br)c43)CC2)CC1 (centres unmarked) [Compound 15.2] | – | 2 to 31.7 | 10 to 700
– | 14.5 to 71.2 | – | CC(C)(C)OC(=O)N1CCC[C@H]1C(=O)N1CCC(CC(=O)N2CCC([C@H]3c4ncc(Br)cc4CCc4cc(Cl)cc(Br)c43)CC2)CC1 [Compound 7.0] | – | 2 to 31.7 | 10 to 700
– | 14.5 to 71.2 | – | N[C@@H](Cc1ccccc1)C(=O)N1CCC(CC(=O)N2CCC([C@H]3c4ncc(Br)cc4CCc4cc(Cl)cc(Br)c43)CC2)CC1 [Compound 8.0] | – | 2 to 31.7 | 10 to 700
– | 14.5 to 71.2 | – | CC(C)(C)OC(=O)N[C@@H](Cc1c[nH]cn1)C(=O)N1CCC(CC(=O)N2CCC([C@H]3c4ncc(Br)cc4CCc4cc(Cl)cc(Br)c43)CC2)CC1 [Compound 6.0] | ≥ 9 | 2 to 31.7 | 10 to 700
≥ 19.5 | – | – | NCC(=O)N1CCC(CC(=O)N2CCC([C@H]3c4ncc(Br)cc4CCc4cc(Cl)cc(Br)c43)CC2)CC1 [Compound 16.0] | ≥ 9 | – | –
